Consider 13 molecules from patent publication US7348315B2, “Methods of treating heart failure with modified ATP, ADP and AMP compounds” (priority 1995, dated 2008).

Test [1] has as its system cardiac ventricular myocytes. As to the kind of experiment: Contractile amplitude of cultured cardiac ventricular myocytes (optico-video motion detection). It is filed as cell-based, chick. To be noted: for ability to stimulate an increase in contractile amplitude: FIGS. 1a-1d; for maximal % increase in contractile amplitude: ventricular myocytes (chick embryo 14 days in ovo / adult rat), mean ± SE; for desensitization of the positive inotropic response to ATP, ADPβS and UTP after pre-exposure: pre-exposure 100 μM, 60 minutes (2-methylthio ATP) or three hours (UTP). The text has this:
[…] Sen, L., Liang, B. T., Colucci, W. S., Smith, T. W., Circ. Res. 67:1182-1192 (1990), modified to include the use of a high-speed peristaltic pump (Masterflex from Cole-Palmer/Spectrum), choice of lots of collagenase, hyaluronidase and protease that give the highest proportion of rod-shaped myocytes, inclusion of bovine serum albumin containing various enzymes, and pre-plating with laminin-coated plates or glass coverslips (for contractility measurement) to eliminate damaged, rounded up myocytes. Specifically, hearts from Sprague-Dawley rats were perfused in a retrograde manner for 5 minutes in Krebs-Henseleit (KH) bicarbonate buffer containing 118 mM NaCl, 4.6 mM KCl, 1.2 mM MgSO4, 1.25 mM CaCl2, 1.2 mM KH2PO4, 25 mM NaHCO3, and 11 mM glucose, gassed with 95% O2/5% CO2/at pH 7.4 (37° C., and an osmolality of 287 mosm/liter). The perfusion buffer was changed to nominally Ca^2+-free KH buffer for 5 min to arrest spontaneous beating. The heart was then perfused with the Ca^2+-free KH buffer containing 0.05% collagenase (Worthington) and 0.03% hyaluronidase (Sigma Chem. Co., St. Louis, Mo.) for 20 min. After removing the atria and the great vessels, the ventricular tissue was finely minced in the same collagenase/hyaluronidase buffer described above except that trypsin (0.02 mg/ml, Sigma) and deoxyribonuclease (0.02 mg/ml, Sigma) was also added. The minced tissue was further incubated in this buffer at 37° C. with shaking to facilitate dissociation of individual ventricular myocytes. The dissociated cells containing some damaged cells were filtered and layered twice over a 6% bovine serum albumin gradient. The rod-shaped healthy heart cells sedimented more easily than the round damaged cells. After the second sedimentation through the 6% BSA gradient, the final pellet contains more than 90% rod-shaped heart cells.
Ventricular myocytes were cultured from chick embryos 14 days in ovo according to known procedures. Briefly, isolated ventricular myocytes from chick embryos 14 in ovo were prepared in calcium- and magnesium-free Hanks' balanced salt sodium (HBSS) containing 0.025% trypsin (GIBCO, Grand Island, N.Y.). After neutralization of trypsin medium containing horse serum and HBSS, cells were centrifuged and resuspended in culture medium containing 6% fetal bovine serum, 40% Medium 199 (GIBCO), 0.1% penicillin/streptomycin, and a salt solution. The final concentrations in the culture medium (in mmol/L) were Na 142, K 3.3, Mg 0.7, Ca 1.4, Cl 130, HCO3 16.4, and glucose 5.5. Cells were plated at a density of 400,000 cell per ml and cultivated in a humidified 5% CO2-95% […]
The cell isolation procedure was generally that of Kelly, R. A., Eid, H., Kramer, B. K., O'Neill, M., Liang, B. T., Reers, M., Smith, T. W., J. Clin. Invest. 86:1164-1171 (1990), […] Cells became confluent on day 3 in culture and contractility measurement was carried out on that day.
Measurement of contractile amplitude in cultured ventricular cells was carried out generally according to the methods of Xu, D., Kong, H., Liang, B. T., Circ. Res. 70:56-65 (1992), and Barry, W. H., and Smith, T. W., J. Physiol. (Lond) 325:243-260 (1982). […]

The test system of another test is isolated mouse heart. As to the kind of experiment: Work-performing isolated mouse heart. The settings on record: 100 nM, vs basal; for increase in +dP/dt (cardiac muscle contractility) / increase in cardiac output (C.O.) / increase in −dP/dt (diastolic relaxation): P less than 0.05, paired t test. As to the method: perfusion in the isolated heart was carried out using the work-performing model described as follows: For the working heart model, a column of KHS buffer produced a constant hydrostatic pressure of 65 mmHg (for rat) or 55 mmHg (for mice). The opening of the pulmonary vein was connected via a PE-90 (for rat) or PE-50 (for mice) catheter to a reservoir of KHS buffer that maintained a “venous return” flow into the left atrium of about 12 mL/min (rat) or 5 mL/min (mice) under the resting condition. The venous return was maintained by a constant level of hydrostatic pressure (7-8 mm Hg) yielding a steady rate of venous return. The entering KHS buffer was then switched from retrograde to antegrade perfusion and produced a work-performing heart preparation. The perfusate exited the left ventricle through the aorta cannula, which was connected to the aortic column of KHS buffer with a hydrostatic pressure of 55 mmHg (for mice) or 65 mmHg (for rat). Aortic flow was the amount of perfusate exiting the aortic cannula measured in millimeters per minute. Coronary flow, in millimeters per minute, was collected via opening of the pulmonary artery. The sum of aortic flow and coronary flow was the cardiac output. A 23 gauge catheter was inserted into the left ventricle and its distal end is connected to a pressure transducer to record left ventricular pressures and ±dP/dt. The left ventricular developed pressure (LVDP) was the difference between LV systolic and diastolic pressure. A side port of the reservoir allowed direct infusion of beta-adrenergic agonist isoproterenol or P2X receptor agonist 2-[…] into the KHS buffer that entered the left ventricle via the left atrium, which then entered the coronary circulation following ejection of drug-containing perfusate into the aorta. The pressure recordings were channeled from amplifiers which had been precalibrated by a transducer simulator/calibrator (Ken Scientific Corp., Litchfield, Conn.). The signals were then digitized via a PCM-DAS 16S/330 interface board (Computer Boards, Inc. Mansfield, Mass.) which provided a high level of performance with analog input channels and digital channels. Data were analyzed by computer software (WorkBench for Windows+, Kent Scientific Corp.) designed for an IBM-compatible computer (Dell). […] Data acquisition, signal display (LV pressures, ±dP/dt, heart rate), and data analysis programs were run concurrently from the hard drive of the computer. Data points under each basal condition and during infusion of each drug concentration were summarized as means±SE, and the statistical differences were analyzed by one-way ANOVA with post-test comparison and […] and ISO (isoproterenol) were present at 100 nM. Basal represented the baseline values obtained before infusion with the agonists. Date were the means and standard errors of those obtained in 5 rats.

A further test relates to working rat heart. Briefly: Intact working rat heart. The settings on record: FIG. 11. As to the method: For the working heart model, a column of KHS buffer produced a constant hydrostatic pressure of 65 mmHg (for rat) or 55 mmHg (for mice). The opening of the pulmonary vein was connected via a PE-90 (for rat) or PE-50 (for mice) catheter to a reservoir of KHS buffer that maintained a “venous return” flow into the left atrium of about 12 mL/min (rat) or 5 mL/min (mice) under the resting condition. The venous return was maintained by a constant level of hydrostatic pressure (7-8 mm Hg) yielding a steady rate of venous return. The entering KHS buffer was then switched from retrograde to antegrade perfusion and produced a work-performing heart preparation. […] Aortic flow was the amount of perfusate exiting the aortic cannula measured in […]. […]
The pressure recordings were channeled from amplifiers which had been precalibrated by a transducer simulator/calibrator (Ken Scientific Corp., Litchfield, Conn.). […] Data were analyzed by computer software (WorkBench for Windows+, Kent Scientific Corp.) designed for an IBM-compatible computer (Dell). […] Data points under each basal condition and during infusion of each drug concentration were summarized as means±SE, and the statistical differences were analyzed by one-way ANOVA with post-test comparison and t test.

As to `Nc1ncnc2c1ncn2[C@@H]1O[C@H](COP(N)(=O)O)[C@@H](O)[C@H]1O` [adenosine 5′monophosphoramidate], the “effect on basal contractile amplitude (positive inotropic effect)” value (“effect on basal contractile amplitude” for short) in test [1] (myocytes paced at 2 HZ, FIG. 7) was “pronounced positive inotropic effect”.
For the molecule `Nc1ncnc2c1ncn2[C@@H]1O[C@H](COP(=O)(O)CP(=O)(O)OP(=O)(O)O)[C@@H](O)[C@H]1O` [α,β-methylene ATP], in test [1], the “ability to stimulate an increase in contractile amplitude” value (“ability to stimulate an increase” for short) is “not capable of producing the same effect” and the “maximal % increase in contractile amplitude” value (shortened to “maximal % increase”) is −13±5%.
Consider `Nc1ncnc2c1ncn2[C@@H]1O[C@H](COP(=O)(O)OP(=O)(O)NP(=O)(O)O)[C@@H](O)[C@H]1O` [App(NH)p, adenylyl imidodiphospate], for which, in test [1] (App(NH)p plus 8-sulfophenyltheophylline, FIG. 8), the “effect on contractile amplitude in presence of adenosine receptor antagonist 8-SPT” value is reported as “not mediated via the adenosine receptor”. Moreover, the “effect on basal contractile amplitude” value in test [1] (FIG. 8) is recorded as “pronounced positive inotropic effect”.
As for `Nc1ncnc2c1ncn2[C@@H]1O[C@H](COP(=O)(O)OP(=O)(O)O)[C@@H](O)[C@H]1O` [ADP], the “maximal % increase” value in test [1] stood at 47.7±10%.
As for `O=c1ccn([C@@H]2O[C@H](COP(=O)(O)OP(=O)(O)OP(=O)(O)O)[C@@H](O)[C@H]2O)c(=O)[nH]1` [UTP], in test [1], the “ability to stimulate an increase” value was “not capable of producing the same effect”; the “desensitization of the positive inotropic response to ATP, ADPβS and UTP after pre-exposure” value was “failed to cause such desensitization”; the “maximal % increase” value is listed as 22±4%.
For the molecule `Nc1ncnc2c1ncn2[C@@H]1O[C@H](COP(=O)(O)OP(=O)(O)OP(=O)(O)O)[C@@H](O)[C@H]1O` [ATP], the “maximal % increase” value in test [1] is recorded as 89.7±9%.
Turning to `Nc1ncnc2c1ncn2[C@@H]1O[C@H](CO)[C@@H](O)[C@H]1O` [adenosine], in test [1], the “maximal % increase” value was 15±4%.
Still for that read-out and setting: under `Nc1ncnc2c1ncn2[C@@H]1O[C@H](COP(=O)(O)O)[C@@H](O)[C@H]1O` [AMP] stands 9.6±4%.
Turning to `Nc1ncnc2c1ncn2[C@@H]1O[C@H](COP(=O)(O)OP(O)(O)=S)[C@@H](O)[C@H]1O` [ADPβS], the “maximal % increase” value in test [1] was found to be 76±15%.
For `CSc1nc(N)c2ncn([C@@H]3O[C@H](COP(=O)(O)OP(=O)(O)O)[C@@H](O)[C@H]3O)c2n1` [2-methylthio ADP], the “effect on basal contractile amplitude” value in test [1] (myocytes paced at 2 HZ, FIG. 7) is given as “pronounced positive inotropic effect”.
`CC(C)NCC(O)c1ccc(O)c(O)c1` (stereo not shown) [isoproterenol]: in the test on isolated mouse heart, the “heart rate (H.R.)” value is recorded as “significant stimulation”, the “increase in +dP/dt (cardiac muscle contractility)” value is given as “statistically significant”, the “increase in cardiac output (C.O.)” value is listed as “statistically significant” and the “increase in −dP/dt (diastolic relaxation)” value is listed as “statistically significant”.
With adenylyl 5′phosphoramidate, the “effect on basal contractile amplitude” value in test [1] (myocytes paced at 2 HZ, FIG. 7) is recorded as “pronounced positive inotropic effect”.
In the case of `CSc1nc(N)c2ncn([C@@H]3O[C@H](COP(=O)(O)OP(=O)(O)OP(=O)(O)O)[C@@H](O)[C@H]3O)c2n1` [2-methylthio ATP], in test [1], the “ability to stimulate an increase” value is “capable of stimulating an increase in contractile amplitude”; the “desensitization of the positive inotropic response to ATP, ADPβS and UTP after pre-exposure” value is “desensitized the positive inotropic response”; the “maximal % increase” value came out at 54±7%. Besides, in the test on isolated mouse heart, the “heart rate (H.R.)” value is “did not change the heart rate”, the “increase in +dP/dt (cardiac muscle contractility)” value is listed as “statistically significant”, the “increase in cardiac output (C.O.)” value is on record as “statistically significant” and the “increase in −dP/dt (diastolic relaxation)” value was “statistically significant”. In the test with working rat heart, the “+dP/dt (index of muscle contractility)” value was “increases” and the “−dP/dt (index of diastolic relaxation)” value is “increases”.
